Assay [1] concerns the target GAL4 DBD-Sin3B (fusion of Sin3B with GAL4 DNA binding domain) (UniProt P04386). In words: cell-based or functional assay.
The test system of another assay is Sin3B and MAD. In words: Mammalian two-hybrid assay, GAL4 DBD-Sin3B and VP16AD-MAD in 293T cells. The assay is classed as cell-based. To be noted: 15 μM peptide applied to the cell culture medium. The text has this:
FIG. 2: SID decoy peptide blocks interactions between Sin3 PAH2 and MAD and interferes with recruitment of members of the Sin3 co-repressor complex. A. GST pull-down of MAD by the Sin3A PAH2 domain is blocked by SID peptide. Sin3A PAH2 domain (amino acids 306-450) was expressed in E. coli as a GST fusion and used in a pull down assay for in vitro interaction with 35S-methionine labeled MAD (left panel) or MAD immunoprecipitated from MDA-MB-231 cell lysates (right panel). 25% of input is shown for in vitro translated MAD and 10% of input for immunoprecipitated MAD (input). Assays were performed using 15 μM Tat-SID or Tat-SID^SCR peptide unless otherwise indicated. […] 293T cells were transfected with GAL4^uas×5-Tk-Luc reporter together with mammalian two-hybrid vectors expressing a fusion of Sin3B with GAL4 DNA binding domain (GAL4^DBD) and fusions of MAD and HDAC1 (columns 5-12 and 14-21, respectively) with VP16 activation domain (VP16^AD), as well as SID expression vectors, as indicated. […]
24 hours prior to transfection, 293T cells were plated at 50-60% confluence on 48-well plates. […] 48 hours post-transfection luciferase activity was measured using the Dual Luciferase assay system (Promega) on a Mithras LB940 plate reader (Berthold Technologies). […]

The next assay deals with MDA-MB-231 cells. In words: Three-dimensional morphogenesis assay in Matrigel. The assay is classed as cell-based, human. To be noted: 5 μM peptide; Matrigel 3D culture; colonies counted after 10 days of treatment. As to the method:
FIG. 3: A. Morphogenesis in 3D cultures in Matrigel. MDA-MB-231 and MMTV-Myc cells expressing SID or the double mutant were cultured in 3D-Matrigel for 14 days. […] B. Reversion of the invasive phenotype of the MDA-MB-231 cells in Matrigel 3D cultures. Upper panel indicates change in numbers of invasive versus non invasive colonies (as indicated in crosshatched and non-crosshatched bars, respectively) in the presence of different concentrations (as indicated) of cell penetrating SID or SID^SCR (scrambled control) peptide. The colonies were counted after 10 days of treatment with a medium containing fresh peptide changed every 24 hours. […] The reduction in invasive phenotype was quantified by counting 5 low magnification fields per well done in triplicates (upper panel). The p value was calculated using the unpaired Student t test.
3D cultures of MDA-MB-231 and MMTV-Myc cells stably transfected with pEGFP-SID, pEGFP-SID2Mut or the parent vector pEGFP-N3 were prepared as described by Debnath et al. (Debnath et al2003). Briefly, […] of growth factor depleted Matrigel (BD Biosciences) was applied on 8-well multichamber slides (BD Biosciences) and incubated at 37° C. for 30 minutes. Once the Matrigel solidified 5×10^3 cells were seeded on top of the gels in assay medium containing 2% Matrigel and 20 ng/ml […]. Growth medium was changed daily for 14 days. Once colony formation was evident, the SID or the scramble control peptide was added to the MDA-MB-231 parental cells in the medium starting at day 3. The morphology of the colonies was determined by confocal microscopy. Induction of apoptosis was determined by staining colonies with activated caspase-3 antibody (BD Transduction Labs) and cell polarization by staining with anti-GM130 antibody (BD Transduction Labs). Cell nuclei were visualized by DAPI (Sigma) staining. […]

The test system of assay [2] is MDA-MB-231 cells transfected with SID. Briefly: Proliferation assay (MTT) for ERα and RAR activation. The assay is classed as cell-based, human. To be noted: SID-transfected MDA-MB-231; for growth inhibition (MTT): daily for 48 hrs. The text has this:
FIG. 5: A. Schematic representations of the promoters and 5′ untranslated regions (5′UTR) of CDH1 and ESR1 used in this study. Positions of CpG dinucleotides are indicated by grey ticks and the transcription initiation sites are represented by black arrows. The relative positions of primer pairs used to PCR amplify immunoprecipitated DNA from ChIP analysis and bisulfite-modified DNA are also indicated. B. H3K4me3 levels on the CDH1 and ESR1 promoter regions increase dramatically in response to SID. ChIP analysis was performed with chromatin from wild type or stably transfected MDA-MB-231 cells as indicated. Cross-linked protein-DNA complexes were immunoprecipitated with an anti-trimethyl H3K4 antibody and amplified by real-time PCR. Results are shown as percentage of input DNA. The RPL30 housekeeping gene is shown as a control. C. Real-time PCR analysis of CDH1 and ESR1 gene expression. Values are shown as molecules per μg total RNA and were derived from the ΔCt between the GAPDH housekeeping gene and the gene of interest. The amount of GAPDH molecules per μg total RNA was determined by absolute quantification. D. The CDH1 and ESR1 promoters undergo demethylation in response to SID. Following bisulfite modification of wild type or stably transfected MDA-MB-231 cells as indicated, specifically amplified PCR products were sequenced using primers corresponding to the promoter/5′UTR of ESR1. Positions of CpG dinucleotides are indicated by grey ticks and the transcription initiation sites are indicated by black arrows. […] Unmethylated CpGs are by represented open circles. CpG positions are shown relative to transcription initiation site. E. Functional assays for ERα and RAR activation. […]
For activation of RARs […] ATRA (all-trans-retinoic acid, pan-RAR agonist) or 100 nM Am580 (retinoibeozoic acid, RARα-specific agonist) was used daily for 48 hours. Cell proliferation was determined by MTT (Thiazolyl Blue Tetrazolium Bromide) colorimetric assay following standard protocols (Invitrogen). The optical density (OD) of reduced MTT was assessed at 570 nm versus 620/630 nm after 4 hr at 37° C. […]

The values below come from patent US20110003753A1, “COMPOSITIONS AND METHODS FOR DISRUPTING THE FUNCTION OF THE TRANSCRIPTIONAL REPRESSOR COMPONENT Sin3A-PAH2 DOMAIN TO INDUCE DIFFERENTIATION AND GROWTH INHIBITION IN BREAST CANCER” (SAMUEL WAXMAN CANCER RESEARCH FOUNDATION, priority 2009, published 2011).

GAL4 DBD-Sin3B (fusion of Sin3B with GAL4 DNA binding domain), sequence (P04386 1-147): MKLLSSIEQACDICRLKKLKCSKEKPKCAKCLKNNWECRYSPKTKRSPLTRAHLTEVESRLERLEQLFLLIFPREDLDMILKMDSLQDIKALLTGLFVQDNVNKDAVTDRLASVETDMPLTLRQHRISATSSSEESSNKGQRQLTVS

The compound “FLAG-tagged SID (6.6 kDa), expressed from pSID (peptide)” yielded a relative luciferase activity, mammalian two-hybrid with GAL4 DBD-Sin3B and VP16AD-MAD (fold increase) in assay [1] of 2.

Regarding “YGRKKRRQGGGEQRARRIMERLLEYNMVADL [scrambled control, reference compound]”, the “increase in luciferase activity compared to GAL4 DBD-Sin3B and VP16AD-MAD co-expression” value with Sin3B and MAD is listed as “nor addition of scrambled control peptide led to an increase in luciferase activity”. The “decrease in number of colonies with invasive phenotype” value with MDA-MB-231 cells is reported as “did not exert this effect”. Take `CC1=C(/C=C/C(C)=C/C=C/C(C)=C/C(=O)O)C(C)(C)CCC1` [ATRA, all-trans-retinoic acid]: the “growth inhibition (MTT)” value in assay [2] (1 uM) is listed as “significant growth inhibition”.

In turn, “TetR-SID fusion (28.4 kDa), expressed from pTHE” returned a relative luciferase activity, mammalian two-hybrid with GAL4 DBD-Sin3B and VP16AD-MAD (fold increase) in assay [1] of 2. “VP16AD-MAD (VP16 activation domain as in-frame fusion with full-length MAD) (from UniProt Q05195 1-221)” came in with a relative luciferase activity, mammalian two-hybrid (GAL4UASx5-Tk-Luc reporter, 293T cells) (fold decrease) in assay [1] of 5.

As for `CC/C(=C(\c1ccccc1)c1ccc(OCCN(C)C)cc1)c1ccccc1` [tamoxifen], in assay [2] (2.5 μM tamoxifen plus E2), the “prevention of E2 growth stimulation (MTT)” value is “prevention of E2 growth stimulation”. As for AM580, in assay [2] (100 nM), the “growth inhibition (MTT)” value is on record as “significant growth inhibition”.
